Marks after values point to notes of the source that are not given here.
Key:
[1] = tested on: HCT-116 colon cancer xenografts; test: Tumor growth inhibition of HCT-116 colon cancer xenografts in tumor-bearing nude mice (tumor volume, TGI %, RTV, T/C %); assay type: in vivo, Balb/c Nude mice; settings: for T/C % (relative tumor proliferation rate): single-dose intraperitoneal, dosage mg/kg: G3, G4, G8 350, G5, G9 325, G6 300, G7 250;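 on T/C % (relative tumor proliferation rate): control C is the vehicle-treated model control group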
Method in brief: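 Tumors in HCT-116-inoculated nude mice were sized three times weekly by diameter, with volume V=3/4π(D/2)^3. Significance set at P<0.05.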

[2] = Method in brief: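 Test compounds formulated in ethanol:Cremophor EL:saline (5:5:90), vehicle alone as control, in HCT-116 subcutaneous xenografts in female Balb/c nudes (6/group, start 60–150 mm^3). Weight measured three times weekly, tumour weight at end; unpaired t-test on Mean±SEM data.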
ICR mice = test: in vivo; settings: female ICR mice; single-dose ip
Method in brief: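 MTD, the dose without mortality, body-weight loss over 10% from Day 0 or marked adverse signs, was found by stepwise up/down single intraperitoneal dosing of female SPF ICR mice. Vehicle: ethanol:Cremophor EL:saline 5:5:90. Animals weighed daily and clinically checked twice daily for up to 14 days.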

[3] = Day 0, G3-G9 groups, single IP dose, Mean±SEM
[4] = Day 4, G3-G9 groups, single IP dose, Mean±SEM
[5] = Day 6, G3-G9 groups, single IP dose, Mean±SEM
[6] = Day 8, G3-G9 groups, single IP dose, Mean±SEM
[7] = Day 11, G3-G9 groups, single IP dose, Mean±SEM
[8] = Day 13, G3-G9 groups, single IP dose, Mean±SEM
[9] = Day 15, G3-G9 groups, single IP dose, Mean±SEM
[10] = Day 18, G3-G9 groups, single IP dose, Mean±SEM
[11] = Day 20, G3-G9 groups, single IP dose, Mean±SEM
[12] = Day 22, G3-G9 groups, single IP dose, Mean±SEM

With `CCCCOC(=O)Nc1nc(=O)n([C@@H]2O[C@H](CO)[C@@H](O)C2(F)F)cc1Br` [Compound G6, 5-Br-4-N-(n-butoxycarbonyl)-2′-deoxy-2′,2′-difluorocytidine] the “Day 0 (RTV)” value [1, 3] was 1.00 ± 0.00, the “Tumor volume, Day 0” value [1, 3] was 80.31 ± 24.42* mm^3 and the “T/C % (relative tumor proliferation rate)” value ([1]; Day 0) was 0.09%. For the same compound, the “Day 4 (TGI %)” value ([1]; Day 4, G3-G9 groups, single IP dose) was 82.09%, the “Day 4 (RTV)” value [1, 4] was 1.42 ± 0.00 and the “Tumor volume, Day 4” value [1, 4] was 47.71 ± 0.00 mm^3. The “T/C % (relative tumor proliferation rate)” value ([1]; Day 4) was 75.54%, the “Day 6 (TGI %)” value ([1]; Day 6, G3-G9 groups, single IP dose) was 84.52% and the “Day 6 (RTV)” value [1, 5] was 1.95 ± 0.00. The “Tumor volume, Day 6” value [1, 5] was 65.45 ± 0.00 mm^3, the “T/C % (relative tumor proliferation rate)” value ([1]; Day 6) was 64.68% and the “Day 8 (TGI %)” value ([1]; Day 8, G3-G9 groups, single IP dose) was 78.47%. For the same compound, the “Day 8 (RTV)” value [1, 6] was 3.38 ± 0.00, the “Tumor volume, Day 8” value [1, 6] was 113.10 ± 0.00 mm^3 and the “T/C % (relative tumor proliferation rate)” value ([1]; Day 8) was 89.68%. The “Day 11 (TGI %)” value ([1]; Day 11, G3-G9 groups, single IP dose) was 72.53%, the “Day 11 (RTV)” value [1, 7] was 6.59 ± 0.00 and the “Tumor volume, Day 11” value [1, 7] was 220.89 ± 0.00 mm^3. The “T/C % (relative tumor proliferation rate)” value ([1]; Day 11) was 110.90%, the “Day 13 (TGI %)” value ([1]; Day 13, G3-G9 groups, single IP dose) was 67.12% and the “Day 13 (RTV)” value [1, 8] was 11.39 ± 0.00. For the same compound, the “Tumor volume, Day 13” value [1, 8] was 381.70 ± 0.00 mm^3, the “T/C % (relative tumor proliferation rate)” value ([1]; Day 13) was 132.45% and the “Day 15 (TGI %)” value ([1]; Day 15, G3-G9 groups, single IP dose) was 50.67%. For the same compound, the “Day 15 (RTV)” value [1, 9] was 20.80 ± 0.00, the “Tumor volume, Day 15” value [1, 9] was 696.91 ± 0.00 mm^3 and the “T/C % (relative tumor proliferation rate)” value ([1]; Day 15) was 198.59%. For the same compound, the “Day 18 (TGI %)” value ([1]; Day 18, G3-G9 groups, single IP dose) was 22.38%, the “Day 18 (RTV)” value [1, 10] was 42.88 ± 0.00 and the “Tumor volume, Day 18” value [1, 10] was 1436.76 ± 0.00 mm^3. For the same compound, the “T/C % (relative tumor proliferation rate)” value ([1]; Day 18) was 311.29%, the “Day 20 (TGI %)” value ([1]; Day 20, G3-G9 groups, single IP dose) was 16.62% and the “Day 20 (RTV)” value [1, 11] was 52.73 ± 0.00. The “Tumor volume, Day 20” value [1, 11] was 1767.15 ± 0.00 mm^3, the “T/C % (relative tumor proliferation rate)” value ([1]; Day 20) was 332.56% and the “Day 22 (TGI %)” value ([1]; Day 22, G3-G9 groups, single IP dose) was 18.00%. For the same compound, the “Day 22 (RTV)” value [1, 12] was 64.00 ± 0.00, the “Tumor volume, Day 22” value [1, 12] was 2144.66 ± 0.00 mm^3 and the “T/C % (relative tumor proliferation rate)” value ([1]; Day 22) was 329.10%. For the same compound, the “Weight change rate, Day 0” value [2, 3] was 0.00 ± 0.00%, the “Weight of mice, Day 0” value [2, 3] was 21.47 ± 0.65 g and the “Weight change rate, Day 4” value [2, 4] was 0.00 ± 0.00%. The “Weight of mice, Day 4” value [2, 4] was 19.30 ± 0.00 g, the “animals died on Day 4 after administration” value ([2]; Day 4, G4 350 mg/kg, G8 350 mg/kg, G6 300 mg/kg, single IP, 6 mice a group) was “Five” and the “Weight change rate, Day 6” value [2, 5] was 0.52 ± 0.00%. The “Weight of mice, Day 6” value [2, 5] was 19.40 ± 0.00 g, the “Weight change rate, Day 8” value [2, 6] was 1.55 ± 0.00% and the “Weight of mice, Day 8” value [2, 6] was 19.60 ± 0.00 g. For the same compound, the “Weight change rate, Day 11” value [2, 7] was 6.22 ± 0.00%, the “Weight of mice, Day 11” value [2, 7] was 20.50 ± 0.00 g and the “Weight change rate, Day 13” value [2, 8] was 7.77 ± 0.00%. For the same compound, the “Weight of mice, Day 13” value [2, 8] was 20.80 ± 0.00 g, the “Weight change rate, Day 15” value [2, 9] was 8.29 ± 0.00% and the “Weight of mice, Day 15” value [2, 9] was 20.90 ± 0.00 g. For the same compound, the “Weight change rate, Day 18” value [2, 10] was 5.18 ± 0.00%, the “Weight of mice, Day 18” value [2, 10] was 20.30 ± 0.00 g and the “Weight change rate, Day 20” value [2, 11] was 4.66 ± 0.00%. The “Weight of mice, Day 20” value [2, 11] was 20.20 ± 0.00 g, the “Weight change rate, Day 22” value [2, 12] was 6.22 ± 0.00% and the “Weight of mice, Day 22” value [2, 12] was 20.50 ± 0.00 g. For the same compound, the “Day 22 Mortality” value ([2]; Day 22, single IP dose (mg/kg)) was 83% and the “dose that could be tolerated (maximum tolerated dose, MTD)” value (ICR mice) was 200 mg/kg.

Source: patent publication US10174067B2, “Type of cytidine derivative and application thereof” (priority 2014, dated 2019)
